Data taken from ChEMBL document CHEMBL3098101, “Fragment based discovery of arginine isosteres through REPLACE: towards non-ATP competitive CDK inhibitors” (Bioorg Med Chem, 2014).
Where a SMILES comes first, the peptide text is derived from it. [ ]: non-standard residue; d: D form. The star is where a group is joined. Furoyl(5-pyrazol-1-ylmethyl) = O=C(c1ccc(Cn2cccn2)o1)*; Phe(4-F) = N[C@@H](Cc1ccc(F)cc1)C(=O)O; Picolinoyl(6-Me) = Cc1cccc(C(=O)*)n1; X13 = CN1CCN(Cc2ccc(C(=O)*)o2)CC1; X1 = Cc1cnn(Cc2ccc(C(=O)*)o2)c1; X11 = CCN(CC)Cc1ccc(C(=O)*)o1; X12 = O=C(c1csc(-c2cccs2)n1)*; X14 = O=C(c1csc(-c2ccsc2)n1)*; X15 = CCOc1ccc(CC(=O)*)cc1OCC; X7 = CC(C)COc1ccc(CC(=O)*)cc1; X4 = O=C(c1ccc(Cn2ccnc2)o1)*; Picolinoyl = O=C(c1ccccn1)*; X16 = CCOc1ccc(CC(=O)*)cc1; X9 = CCCOc1ccc(CC(=O)*)cc1; X10 = CCOc1cccc(C(=O)*)n1; X8 = COc1cccc(C(=O)*)n1

What was measured:
[1] = biological target: Cyclin-dependent kinase 4/cyclin D1 (Homo sapiens, UniProt P24385); assay: Inhibition of human recombinant CDK4/cyclin D1 using fluoresceinyl-Ahx-Pro-Val-Lys-Arg-Arg-Leu-(3ClPhe)-Gly as substrate after 45 mins by fluorescence polarization assay; format: protein-complex assay
CDK2/Cyclin A2 = CDK2/Cyclin A2 (Homo sapiens, UniProt P24941); assay: Inhibition of human recombinant CDK2/cyclin A using fluoresceinyl-Ahx-Pro-Val-Lys-Arg-Arg-Leu-Phe-Gly as substrate after 45 mins by fluorescence polarization assay; format: protein-complex assay

Sequence of Cyclin-dependent kinase 4/cyclin D1 (P11802 whole entry): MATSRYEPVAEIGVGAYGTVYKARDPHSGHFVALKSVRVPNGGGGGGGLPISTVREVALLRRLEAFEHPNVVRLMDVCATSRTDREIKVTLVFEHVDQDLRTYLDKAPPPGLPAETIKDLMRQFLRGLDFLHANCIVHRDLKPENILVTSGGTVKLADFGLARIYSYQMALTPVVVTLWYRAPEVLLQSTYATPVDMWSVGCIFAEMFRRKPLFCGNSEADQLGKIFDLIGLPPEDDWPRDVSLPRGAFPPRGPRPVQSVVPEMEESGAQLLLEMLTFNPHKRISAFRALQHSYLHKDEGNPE
Sequence of Cyclin-dependent kinase 4/cyclin D1 (P24385 whole entry): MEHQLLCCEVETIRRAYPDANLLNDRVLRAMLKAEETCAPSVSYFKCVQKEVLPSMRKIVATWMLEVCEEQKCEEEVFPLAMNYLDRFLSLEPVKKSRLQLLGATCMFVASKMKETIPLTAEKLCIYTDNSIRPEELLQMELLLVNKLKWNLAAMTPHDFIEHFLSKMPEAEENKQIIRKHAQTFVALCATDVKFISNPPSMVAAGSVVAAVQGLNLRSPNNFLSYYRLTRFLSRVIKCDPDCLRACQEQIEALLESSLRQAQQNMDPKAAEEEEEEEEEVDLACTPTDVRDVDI

SMILES | IC50 [1] | IC50 (CDK2/Cyclin A2)
CC(C)C[C@H](NC(=O)[C@H](CCCN=C(N)N)NC(=O)c1ccccn1)C(=O)N[C@@H](CC(N)=O)C(=O)N[C@@H](Cc1ccc(F)cc1)C(=O)O (Picolinoyl-RLN[Phe(4-F)]-OH) | 48.4 µM | 29.2 µM
CC[C@H](C)[C@H](NC(=O)[C@H](CC(C)C)NC(=O)[C@H](CCCN=C(N)N)NC(=O)c1ccc(Cn2cc(C)cn2)o1)C(=O)N[C@@H](Cc1ccccc1)C(=O)O (X1-RLIF-OH) | > 180 µM | > 100 µM
CC[C@H](C)[C@H](NC(=O)[C@H](CC(C)C)NC(=O)[C@H](CCCN=C(N)N)NC(=O)c1ccc(Cn2ccnc2)o1)C(=O)N[C@@H](Cc1ccccc1)C(=O)O (X4-RLIF-OH) | 159 µM | > 100 µM
CC(C)COc1ccc(CC(=O)N[C@@H](CCCNC(=N)N)C(=O)N[C@@H](CC(C)C)C(=O)N[C@@H](CC(N)=O)C(=O)N[C@@H](Cc2ccc(F)cc2)C(=O)O)cc1 (X7-RLN[Phe(4-F)]-OH) | > 100 µM | > 100 µM
COc1cccc(C(=O)N[C@@H](CCCN=C(N)N)C(=O)N[C@@H](CC(C)C)C(=O)N[C@@H](CC(N)=O)C(=O)N[C@@H](Cc2ccc(F)cc2)C(=O)O)n1 (X8-RLN[Phe(4-F)]-OH) | 36.9 µM | 36.4 µM
CCCOc1ccc(CC(=O)N[C@@H](CCCN=C(N)N)C(=O)N[C@@H](CC(C)C)C(=O)N[C@@H](CC(N)=O)C(=O)N[C@@H](Cc2ccc(F)cc2)C(=O)O)cc1 (X9-RLN[Phe(4-F)]-OH) | > 50 µM | > 100 µM
CCOc1cccc(C(=O)N[C@@H](CCCNC(=N)N)C(=O)N[C@@H](CC(C)C)C(=O)N[C@@H](CC(N)=O)C(=O)N[C@@H](Cc2ccc(F)cc2)C(=O)O)n1 (X10-RLN[Phe(4-F)]-OH) | > 100 µM | 39.7 µM
CC[C@H](C)[C@H](NC(=O)[C@H](CC(C)C)NC(=O)[C@H](CCCNC(=N)N)NC(=O)c1ccc(CN(CC)CC)o1)C(=O)N[C@@H](Cc1ccccc1)C(=O)O (X11-RLIF-OH) | 41.9 µM | 43.5 µM
CC[C@H](C)[C@H](NC(=O)[C@H](CC(C)C)NC(=O)[C@H](CCCNC(=N)N)NC(=O)c1csc(-c2cccs2)n1)C(=O)N[C@@H](Cc1ccccc1)C(=O)O (X12-RLIF-OH) | > 180 µM | > 180 µM
CC[C@H](C)[C@H](NC(=O)[C@H](CC(C)C)NC(=O)[C@H](CCCNC(=N)N)NC(=O)c1ccc(CN2CCN(C)CC2)o1)C(=O)N[C@@H](Cc1ccccc1)C(=O)O (X13-RLIF-OH) | 43.2 µM | 50.3 µM
CC[C@H](C)[C@H](NC(=O)[C@H](CC(C)C)NC(=O)[C@H](CCCN=C(N)N)NC(=O)c1csc(-c2ccsc2)n1)C(=O)N[C@@H](Cc1ccccc1)C(=O)O (X14-RLIF-OH) | > 180 µM | 56.2 µM
CCOc1ccc(CC(=O)N[C@@H](CCCNC(=N)N)C(=O)N[C@@H](CC(C)C)C(=O)N[C@@H](CC(N)=O)C(=O)N[C@@H](Cc2ccc(F)cc2)C(=O)O)cc1OCC (X15-RLN[Phe(4-F)]-OH) | 3 µM | 5.2 µM
CCOc1ccc(CC(=O)N[C@@H](CCCN=C(N)N)C(=O)N[C@@H](CC(C)C)C(=O)N[C@@H](CC(N)=O)C(=O)N[C@@H](Cc2ccc(F)cc2)C(=O)O)cc1 (X16-RLN[Phe(4-F)]-OH) | > 100 µM | > 100 µM
CC[C@H](C)[C@H](NC(=O)[C@H](CC(C)C)NC(=O)[C@H](CCCN=C(N)N)NC(=O)c1ccc(Cn2cccn2)o1)C(=O)N[C@@H](Cc1ccccc1)C(=O)O ({Furoyl(5-pyrazol-1-ylmethyl)}-RLIF-OH) | > 100 µM | > 100 µM
CC[C@H](C)[C@H](NC(=O)[C@H](CC(C)C)NC(=O)[C@H](CCCNC(=N)N)NC(=O)c1cccc(C)n1)C(=O)N[C@@H](Cc1ccccc1)C(=O)O ({Picolinoyl(6-Me)}-RLIF-OH) | 85.7 µM | > 100 µM
